These compounds were tested against Voltage-gated inwardly rectifying potassium channel KCNH2 (Homo sapiens, UniProt Q12809).
Voltage-gated inwardly rectifying potassium channel KCNH2, sequence (Q12809 whole entry): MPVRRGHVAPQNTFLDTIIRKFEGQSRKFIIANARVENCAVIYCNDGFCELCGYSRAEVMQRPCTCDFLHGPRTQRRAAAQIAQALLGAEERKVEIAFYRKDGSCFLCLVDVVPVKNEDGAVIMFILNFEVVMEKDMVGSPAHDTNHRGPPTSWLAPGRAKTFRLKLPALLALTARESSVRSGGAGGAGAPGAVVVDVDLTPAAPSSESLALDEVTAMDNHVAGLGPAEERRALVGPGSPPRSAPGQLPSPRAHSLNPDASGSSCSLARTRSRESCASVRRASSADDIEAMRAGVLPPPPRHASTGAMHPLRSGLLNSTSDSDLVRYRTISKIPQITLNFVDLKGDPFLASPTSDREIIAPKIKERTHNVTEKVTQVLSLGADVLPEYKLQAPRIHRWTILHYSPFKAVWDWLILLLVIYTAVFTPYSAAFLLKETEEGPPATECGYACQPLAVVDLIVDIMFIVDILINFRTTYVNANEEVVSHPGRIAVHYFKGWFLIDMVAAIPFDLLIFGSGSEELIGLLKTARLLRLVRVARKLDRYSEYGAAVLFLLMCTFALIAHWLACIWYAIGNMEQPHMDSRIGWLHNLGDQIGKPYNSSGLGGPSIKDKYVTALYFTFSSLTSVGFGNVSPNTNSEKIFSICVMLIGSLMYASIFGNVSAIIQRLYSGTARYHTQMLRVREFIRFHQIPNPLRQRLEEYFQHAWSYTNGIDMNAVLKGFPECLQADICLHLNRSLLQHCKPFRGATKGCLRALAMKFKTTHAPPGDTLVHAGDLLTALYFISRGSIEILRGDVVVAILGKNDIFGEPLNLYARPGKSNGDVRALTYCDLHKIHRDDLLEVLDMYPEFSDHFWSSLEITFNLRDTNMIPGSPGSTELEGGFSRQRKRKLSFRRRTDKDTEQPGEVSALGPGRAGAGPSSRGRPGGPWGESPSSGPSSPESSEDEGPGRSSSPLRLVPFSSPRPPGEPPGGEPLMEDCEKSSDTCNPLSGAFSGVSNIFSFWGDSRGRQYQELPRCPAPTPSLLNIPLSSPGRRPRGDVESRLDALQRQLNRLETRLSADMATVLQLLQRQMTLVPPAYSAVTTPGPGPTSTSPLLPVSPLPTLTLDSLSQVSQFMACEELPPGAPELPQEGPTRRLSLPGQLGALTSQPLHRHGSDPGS
Description: Inhibition of hERG expressed in HEK cells by patch clamp method

SMILES | IC50
CCNC(=N)NC(=O)Nc1c(CC)cc(C(=O)NCc2ccccc2)cc1CC | > 30 µM
CCNC(=N)NC(=O)Nc1c(CC)cc(C(=O)NC(C)C)cc1CC | > 30 µM
CCNC(=N)NC(=O)Nc1c(CC)cc(NS(=O)(=O)c2ccccc2)cc1CC | > 30 µM
CCNC(=N)NC(=O)Nc1c(CC)cc(S(=O)(=O)NCC)cc1CC | > 30 µM
